According to PubChem BioAssay (NCI):
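Grown in 96-well plates, cells were treated for 48 hours with each compound at five concentrations. Insufficient inhibition: endpoint recorded as highest concentration tested. Definition used: TGI = concentration required for complete inhibition of growth.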

Legend:
Assay in all cases: growth of human tumour cells (NCI), 48 h
COLO 205 colon = system: COLO 205 colon
NCI-H23 lung = system: NCI-H23 lung
EKVX NSCLC = system: EKVX NSCLC
786-0 renal = system: 786-0 renal
SNB-19 CNS = system: SNB-19 CNS
HCT-15 colon = system: HCT-15 colon
OVCAR-8 ovarian = system: OVCAR-8 ovarian
DU-145 prostate = system: DU-145 prostate
UO-31 renal = system: UO-31 renal
A498 renal = system: A498 renal
HL-60(TB) leukemia = system: HL-60(TB) leukemia
SN12C renal = system: SN12C renal
MALME-3M melanoma = system: MALME-3M melanoma
RXF 393 renal = system: RXF 393 renal
NCI-H522 lung = system: NCI-H522 lung
SF-539 CNS = system: SF-539 CNS
SK-MEL-5 melanoma = system: SK-MEL-5 melanoma
SK-MEL-2 melanoma = system: SK-MEL-2 melanoma
SK-MEL-28 melanoma = system: SK-MEL-28 melanoma
RPMI-8226 leukemia = system: RPMI-8226 leukemia
NCI-H460 lung = system: NCI-H460 lung
UACC-62 melanoma = system: UACC-62 melanoma
LOX IMVI melanoma = system: LOX IMVI melanoma
SF-268 CNS = system: SF-268 CNS
M14 melanoma = system: M14 melanoma
IGROV1 ovarian = system: IGROV1 ovarian
CAKI-1 renal = system: CAKI-1 renal
HOP-62 NSCLC = system: HOP-62 NSCLC
SK-OV-3 ovarian = system: SK-OV-3 ovarian
SR leukemia = system: SR leukemia
OVCAR-3 ovarian = system: OVCAR-3 ovarian
OVCAR-4 ovarian = system: OVCAR-4 ovarian
HCT-116 colon = system: HCT-116 colon
U251 CNS = system: U251 CNS
MDA-N = system: MDA-N
ACHN renal = system: ACHN renal
NCI/ADR-RES ovarian = system: NCI/ADR-RES ovarian
SNB-75 CNS = system: SNB-75 CNS
KM12 colon = system: KM12 colon
OVCAR-5 ovarian = system: OVCAR-5 ovarian
NCI-H226 lung = system: NCI-H226 lung
K-562 leukemia = system: K-562 leukemia
HS 578T breast = system: HS 578T breast
HT29 colon = system: HT29 colon
MCF7 breast = system: MCF7 breast
BT-549 breast = system: BT-549 breast
MDA-MB-435 = system: MDA-MB-435
MDA-MB-231 breast = system: MDA-MB-231 breast
CCRF-CEM leukemia = system: CCRF-CEM leukemia
PC-3 prostate = system: PC-3 prostate
SF-295 CNS = system: SF-295 CNS
HCC-2998 colon = system: HCC-2998 colon
UACC-257 melanoma = system: UACC-257 melanoma
TK-10 renal = system: TK-10 renal
SW-620 colon = system: SW-620 colon
A549 NSCLC = system: A549 NSCLC
MOLT-4 leukemia = system: MOLT-4 leukemia
T-47D breast = system: T-47D breast

With `C=CCOC1=C(OC(C)=O)C(=O)OC1C1COC(C)(C)O1` (stereo not drawn) as the molecule, how does the TGI (COLO 205 colon) read?
Its TGI is greater than 58.9 µM.

And the TGI (NCI-H23 lung)?
The TGI was greater than 83.2 µM.

What about the TGI (EKVX NSCLC) of the same molecule?
The TGI was greater than 68 µM.

And the TGI (786-0 renal)?
Its TGI is greater than 60.7 µM.

And the TGI (SNB-19 CNS)?
Its TGI is greater than 100 µM.

And the TGI (HCT-15 colon)?
Its TGI is 46.2 µM.

And the TGI (OVCAR-8 ovarian)?
The TGI was greater than 84.6 µM.

What about the TGI (DU-145 prostate) of the same molecule?
The TGI was greater than 100 µM.

What about the TGI (UO-31 renal) of the same molecule?
Its TGI is greater than 79.4 µM.

And the TGI (A498 renal)?
Its TGI is greater than 100 µM.

And the TGI (HL-60(TB) leukemia)?
The TGI was greater than 60.8 µM.

What about the TGI (SN12C renal) of the same molecule?
Its TGI is greater than 68.7 µM.

And the TGI (MALME-3M melanoma)?
Its TGI is 57.1 µM.

What about the TGI (RXF 393 renal) of the same molecule?
Its TGI is greater than 56.5 µM.

What about the TGI (NCI-H522 lung) of the same molecule?
Its TGI is 34.6 µM.

And the TGI (SF-539 CNS)?
The TGI was greater than 74.8 µM.

And the TGI (SK-MEL-5 melanoma)?
Its TGI is greater than 100 µM.

And the TGI (SK-MEL-2 melanoma)?
Its TGI is 98.9 µM.

And the TGI (SK-MEL-28 melanoma)?
The TGI was 31.9 µM.

What about the TGI (RPMI-8226 leukemia) of the same molecule?
Its TGI is greater than 100 µM.

And the TGI (NCI-H460 lung)?
Its TGI is greater than 100 µM.

What about the TGI (UACC-62 melanoma) of the same molecule?
Its TGI is greater than 100 µM.

What about the TGI (LOX IMVI melanoma) of the same molecule?
The TGI was 33.2 µM.

What about the TGI (SF-268 CNS) of the same molecule?
Its TGI is greater than 100 µM.

And the TGI (M14 melanoma)?
Its TGI is greater than 80.7 µM.

What about the TGI (IGROV1 ovarian) of the same molecule?
Its TGI is greater than 100 µM.

And the TGI (CAKI-1 renal)?
The TGI was greater than 57.1 µM.

And the TGI (HOP-62 NSCLC)?
The TGI was greater than 100 µM.

What about the TGI (SK-OV-3 ovarian) of the same molecule?
The TGI was greater than 100 µM.

And the TGI (SR leukemia)?
The TGI was 9.02 µM.

What about the TGI (OVCAR-3 ovarian) of the same molecule?
Its TGI is 31.4 µM.

And the TGI (OVCAR-4 ovarian)?
Its TGI is 32.1 µM.

And the TGI (HCT-116 colon)?
The TGI was greater than 65.2 µM.

What about the TGI (U251 CNS) of the same molecule?
Its TGI is greater than 100 µM.

What about the TGI (MDA-N) of the same molecule?
Its TGI is greater than 100 µM.

And the TGI (ACHN renal)?
The TGI was 46.6 µM.

What about the TGI (NCI/ADR-RES ovarian) of the same molecule?
Its TGI is greater than 100 µM.

And the TGI (SNB-75 CNS)?
Its TGI is greater than 71.3 µM.

And the TGI (KM12 colon)?
The TGI was greater than 65.6 µM.

What about the TGI (OVCAR-5 ovarian) of the same molecule?
Its TGI is greater than 100 µM.

What about the TGI (NCI-H226 lung) of the same molecule?
Its TGI is greater than 100 µM.

And the TGI (K-562 leukemia)?
The TGI was greater than 56.5 µM.

And the TGI (HS 578T breast)?
The TGI was greater than 100 µM.

What about the TGI (HT29 colon) of the same molecule?
The TGI was greater than 83.2 µM.

And the TGI (MCF7 breast)?
The TGI was greater than 66.4 µM.

What about the TGI (BT-549 breast) of the same molecule?
Its TGI is greater than 88.2 µM.

And the TGI (MDA-MB-435)?
The TGI was greater than 74 µM.

What about the TGI (MDA-MB-231 breast) of the same molecule?
Its TGI is greater than 100 µM.

What about the TGI (CCRF-CEM leukemia) of the same molecule?
Its TGI is greater than 60.4 µM.

And the TGI (PC-3 prostate)?
Its TGI is greater than 100 µM.

What about the TGI (SF-295 CNS) of the same molecule?
Its TGI is greater than 100 µM.

And the TGI (HCC-2998 colon)?
Its TGI is greater than 100 µM.

What about the TGI (UACC-257 melanoma) of the same molecule?
Its TGI is greater than 100 µM.

And the TGI (TK-10 renal)?
Its TGI is greater than 100 µM.

And the TGI (SW-620 colon)?
Its TGI is greater than 59.7 µM.

What about the TGI (A549 NSCLC) of the same molecule?
The TGI was greater than 100 µM.

And the TGI (MOLT-4 leukemia)?
The TGI was 45.7 µM.

And the TGI (T-47D breast)?
Its TGI is greater than 63.7 µM.
